Earlier results in patent US5275819A, “Drug loaded pollen grains with an outer coating for pulsed delivery” (Amer Particle Technologies Inc., priority 1991, dated 1994).

Details: compared with GNRH

In the case of `CC(C)C[C@H](NC(=O)[C@@H](Cc1ccc2ccccc2c1)NC(=O)[C@H](Cc1ccc(O)cc1)NC(=O)[C@H](CO)NC(=O)[C@H](Cc1c[nH]c2ccccc12)NC(=O)[C@H](Cc1c[nH]cn1)NC(=O)[C@@H]1CCC(=O)N1)C(=O)N[C@@H](CCCNC(=N)N)C(=O)N1CCC[C@H]1C(=O)NCC(N)=O` [Nafarelin], the “activity relative to GNRH” value is given as 200 times.
